According to patent US10550111B2, “Pyrimidine urea compound containing isoxazolines and use thereof” (SHENYANG SINOCHEM AGROCHEMICALS R&D CO., LTD, priority 2014, dated 2020):

What was measured:
Format in all cases: in vivo
Zinnia elegans Jacq. = test: Bioassay of herbicidal activity in greenhouse (further screening)
Procedure, shortened: (§1)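 Visual growth inhibition rating (0 no effect to 100 all weeds dead or not emerged) after track-sprayer application (500 L/hm²) of emulsifiable concentrate. Treatments either pre-emergence, 24 h after sowing, or post-emergence at 2–3-leaf grass and 2–4-leaf broad-leaf stage, greenhouse-grown.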

[1] = tested on: Echinochloa crus-galli (L.) Beauv.; test: as above
Procedure, shortened: as §1

[2] = tested on: Abutilon theophrasti Medic.; test: as above
Procedure, shortened: as §1

[3] = tested on: Setaria glauca (L.) Beauv.; test: as above
Procedure, shortened: as §1

[4] = tested on: broad-leaf weeds and grass weeds; test: General screening of herbicidal activity in greenhouse; conditions: 1000 g a.i./hm^2
Procedure, shortened: as §1

wheat = test: Crop safety study in greenhouse; conditions: 7.5-37.5 g a.i./hm^2; pre-emergence and post-emergence application
Excerpt: (§2) Seeds of soybean, cotton, maize, wheat and rice were sown in nutrition soil in paper pot (9 cm diameter), covered with soil in 1 cm and grown in the greenhouse under good growth conditions (temperature, atmospheric humidity, water supply). The compounds of the present invention as emulsifiable concentrate, were applied in pre-emergence and post-emergence treatment by track sprayer (Engineer Research Ltd., pressure 1.95 kg/cm^2, volume 500 L/hm^2, track speed 1.48 km/h). Pre-emergence treatment was conducted after seeding 24 hours and post-emergence treatment was done when the respective weeds reached predetermined leaf stage (soybean and cotton at 2- to 4-leaf stage and maize, wheat and rice at 3-leaf stage), the state of growth of the respective crops were visually observed to determine the safety in accordance with the following evaluation standard.
(§3) Safety rating scale (%): 0 means no damage to crops; 100 means to kill crops completely.

maize = test: Crop safety study in greenhouse; conditions: 7.5-37.5 g a.i./hm^2; pre-emergence and post-emergence application
Excerpt: as §2, §3

rice = test: Crop safety study in greenhouse; conditions: 7.5-37.5 g a.i./hm^2; pre-emergence and post-emergence application
Excerpt: as §2, §3

For `CC(=O)OCC1(C)CC(c2cc(-n3c(=O)cc(C(F)(F)F)n(C)c3=O)c(F)cc2Cl)=NO1` (stereo not shown) [Compound 43], which “Growth inhibition rate, Post-emergence treatment, Zinnia elegans Jacq.” value (Zinnia elegans Jacq.; dose 7.5 g a.i./hm^2) is on record?
The value was 98%.

What about the “Growth inhibition rate, Post-emergence treatment, Zinnia elegans Jacq.” value (Zinnia elegans Jacq.; dose 15 g a.i./hm^2) of the same compound?
Its value is 100%.

What about the “Growth inhibition rate, Post-emergence treatment, Zinnia elegans Jacq.” value (Zinnia elegans Jacq.; dose 37.5 g a.i./hm^2) of the same compound?
Its value is 100%.

And the “Growth inhibition rate, Post-emergence treatment, Zinnia elegans Jacq.” value (Zinnia elegans Jacq.; dose 150 g a.i./hm^2)?
The value was 100%.

What about the “Growth inhibition rate, Post-emergence treatment, Zinnia elegans Jacq.” value (Zinnia elegans Jacq.; dose 600 g a.i./hm^2) of the same compound?
The value was 100%.

What about the “Growth inhibition rate, Pre-emergence treatment, Zinnia elegans Jacq.” value (Zinnia elegans Jacq.; dose 7.5 g a.i./hm^2) of the same compound?
The value was 0%.

What about the “Growth inhibition rate, Pre-emergence treatment, Zinnia elegans Jacq.” value (Zinnia elegans Jacq.; dose 15 g a.i./hm^2) of the same compound?
The value was 25%.

And the “Growth inhibition rate, Pre-emergence treatment, Zinnia elegans Jacq.” value (Zinnia elegans Jacq.; dose 37.5 g a.i./hm^2)?
The value was 50%.

What about the “Growth inhibition rate, Pre-emergence treatment, Zinnia elegans Jacq.” value (Zinnia elegans Jacq.; dose 150 g a.i./hm^2) of the same compound?
The value was 100%.

What about the “Growth inhibition rate, Pre-emergence treatment, Zinnia elegans Jacq.” value (Zinnia elegans Jacq.; dose 600 g a.i./hm^2) of the same compound?
Its value is 100%.

What about the “Growth inhibition rate, Post-emergence treatment, Echinochloa crus-galli (L.) Beauv.” value ([1]; dose 7.5 g a.i./hm^2) of the same compound?
The value was 10%.

What about the “Growth inhibition rate, Post-emergence treatment, Echinochloa crus-galli (L.) Beauv.” value ([1]; dose 15 g a.i./hm^2) of the same compound?
The value was 20%.

What about the “Growth inhibition rate, Post-emergence treatment, Echinochloa crus-galli (L.) Beauv.” value ([1]; dose 37.5 g a.i./hm^2) of the same compound?
Its value is 10%.

What about the “Growth inhibition rate, Post-emergence treatment, Echinochloa crus-galli (L.) Beauv.” value ([1]; dose 150 g a.i./hm^2) of the same compound?
The value was 90%.

And the “Growth inhibition rate, Post-emergence treatment, Echinochloa crus-galli (L.) Beauv.” value ([1]; dose 600 g a.i./hm^2)?
Its value is 100%.

What about the “Growth inhibition rate, Pre-emergence treatment, Echinochloa crus-galli (L.) Beauv.” value ([1]; dose 7.5 g a.i./hm^2) of the same compound?
Its value is 10%.

And the “Growth inhibition rate, Pre-emergence treatment, Echinochloa crus-galli (L.) Beauv.” value ([1]; dose 15 g a.i./hm^2)?
Its value is 60%.

What about the “Growth inhibition rate, Pre-emergence treatment, Echinochloa crus-galli (L.) Beauv.” value ([1]; dose 37.5 g a.i./hm^2) of the same compound?
The value was 90%.

And the “Growth inhibition rate, Pre-emergence treatment, Echinochloa crus-galli (L.) Beauv.” value ([1]; dose 150 g a.i./hm^2)?
The value was 95%.

And the “Growth inhibition rate, Pre-emergence treatment, Echinochloa crus-galli (L.) Beauv.” value ([1]; dose 600 g a.i./hm^2)?
The value was 100%.

And the “Growth inhibition rate, Post-emergence treatment, Abutilon theophrasti Medic.” value ([2]; dose 7.5 g a.i./hm^2)?
The value was 100%.

What about the “Growth inhibition rate, Post-emergence treatment, Abutilon theophrasti Medic.” value ([2]; dose 15 g a.i./hm^2) of the same compound?
Its value is 100%.

What about the “Growth inhibition rate, Post-emergence treatment, Abutilon theophrasti Medic.” value ([2]; dose 37.5 g a.i./hm^2) of the same compound?
Its value is 100%.

What about the “Growth inhibition rate, Post-emergence treatment, Abutilon theophrasti Medic.” value ([2]; dose 150 g a.i./hm^2) of the same compound?
The value was 100%.

And the “Growth inhibition rate, Post-emergence treatment, Abutilon theophrasti Medic.” value ([2]; dose 600 g a.i./hm^2)?
Its value is 100%.

And the “Growth inhibition rate, Pre-emergence treatment, Abutilon theophrasti Medic.” value ([2]; dose 7.5 g a.i./hm^2)?
The value was 100%.

What about the “Growth inhibition rate, Pre-emergence treatment, Abutilon theophrasti Medic.” value ([2]; dose 15 g a.i./hm^2) of the same compound?
Its value is 100%.

And the “Growth inhibition rate, Pre-emergence treatment, Abutilon theophrasti Medic.” value ([2]; dose 37.5 g a.i./hm^2)?
The value was 100%.

And the “Growth inhibition rate, Pre-emergence treatment, Abutilon theophrasti Medic.” value ([2]; dose 150 g a.i./hm^2)?
The value was 100%.

What about the “Growth inhibition rate, Pre-emergence treatment, Abutilon theophrasti Medic.” value ([2]; dose 600 g a.i./hm^2) of the same compound?
The value was 100%.

What about the “Growth inhibition rate, Post-emergence treatment, Setaria glauca (L.) Beauv.” value ([3]; dose 7.5 g a.i./hm^2) of the same compound?
Its value is 70%.

And the “Growth inhibition rate, Post-emergence treatment, Setaria glauca (L.) Beauv.” value ([3]; dose 15 g a.i./hm^2)?
The value was 80%.

And the “Growth inhibition rate, Post-emergence treatment, Setaria glauca (L.) Beauv.” value ([3]; dose 37.5 g a.i./hm^2)?
The value was 25%.

What about the “Growth inhibition rate, Post-emergence treatment, Setaria glauca (L.) Beauv.” value ([3]; dose 150 g a.i./hm^2) of the same compound?
The value was 95%.

What about the “Growth inhibition rate, Post-emergence treatment, Setaria glauca (L.) Beauv.” value ([3]; dose 600 g a.i./hm^2) of the same compound?
Its value is 100%.

And the “Growth inhibition rate, Pre-emergence treatment, Setaria glauca (L.) Beauv.” value ([3]; dose 7.5 g a.i./hm^2)?
The value was 20%.

What about the “Growth inhibition rate, Pre-emergence treatment, Setaria glauca (L.) Beauv.” value ([3]; dose 15 g a.i./hm^2) of the same compound?
Its value is 35%.

And the “Growth inhibition rate, Pre-emergence treatment, Setaria glauca (L.) Beauv.” value ([3]; dose 37.5 g a.i./hm^2)?
Its value is 90%.

And the “Growth inhibition rate, Pre-emergence treatment, Setaria glauca (L.) Beauv.” value ([3]; dose 150 g a.i./hm^2)?
Its value is 98%.

What about the “Growth inhibition rate, Pre-emergence treatment, Setaria glauca (L.) Beauv.” value ([3]; dose 600 g a.i./hm^2) of the same compound?
The value was 100%.

And the “pre-emergence and post-emergence herbicidal activity against broad-leaf weeds and grass weeds” value [4]?
The value was “good”.

And the “Crop safety, wheat” value (wheat)?
The value was “good safety”.

What about the “Crop safety, maize” value (maize) of the same compound?
Its value is “good safety”.

And the “Crop safety, rice” value (rice)?
The value was “good safety”.

Which results are given for `Cn1c(C(F)(F)F)cc(=O)n(-c2cc(C3=NOC(C)(COC(=O)C4CC4)C3)c(Cl)cc2F)c1=O` (stereo not shown) [Compound 45]?
Growth inhibition rate, Post-emergence treatment, Zinnia elegans Jacq. (Zinnia elegans Jacq.; dose 7.5 g a.i./hm^2): 95%; Growth inhibition rate, Post-emergence treatment, Zinnia elegans Jacq. (Zinnia elegans Jacq.; dose 15 g a.i./hm^2): 100%; Growth inhibition rate, Post-emergence treatment, Zinnia elegans Jacq. (Zinnia elegans Jacq.; dose 37.5 g a.i./hm^2): 100%; Growth inhibition rate, Post-emergence treatment, Zinnia elegans Jacq. (Zinnia elegans Jacq.; dose 150 g a.i./hm^2): 100%; Growth inhibition rate, Post-emergence treatment, Zinnia elegans Jacq. (Zinnia elegans Jacq.; dose 600 g a.i./hm^2): 100%; Growth inhibition rate, Pre-emergence treatment, Zinnia elegans Jacq. (Zinnia elegans Jacq.; dose 7.5 g a.i./hm^2): 20%; Growth inhibition rate, Pre-emergence treatment, Zinnia elegans Jacq. (Zinnia elegans Jacq.; dose 15 g a.i./hm^2): 20%; Growth inhibition rate, Pre-emergence treatment, Zinnia elegans Jacq. (Zinnia elegans Jacq.; dose 37.5 g a.i./hm^2): 90%; Growth inhibition rate, Pre-emergence treatment, Zinnia elegans Jacq. (Zinnia elegans Jacq.; dose 150 g a.i./hm^2): 95%; Growth inhibition rate, Pre-emergence treatment, Zinnia elegans Jacq. (Zinnia elegans Jacq.; dose 600 g a.i./hm^2): 100%; Growth inhibition rate, Post-emergence treatment, Echinochloa crus-galli (L.) Beauv. ([1]; dose 7.5 g a.i./hm^2): 15%; Growth inhibition rate, Post-emergence treatment, Echinochloa crus-galli (L.) Beauv. ([1]; dose 15 g a.i./hm^2): 15%; Growth inhibition rate, Post-emergence treatment, Echinochloa crus-galli (L.) Beauv. ([1]; dose 37.5 g a.i./hm^2): 25%; Growth inhibition rate, Post-emergence treatment, Echinochloa crus-galli (L.) Beauv. ([1]; dose 150 g a.i./hm^2): 80%; Growth inhibition rate, Post-emergence treatment, Echinochloa crus-galli (L.) Beauv. ([1]; dose 600 g a.i./hm^2): 100%; Growth inhibition rate, Pre-emergence treatment, Echinochloa crus-galli (L.) Beauv. ([1]; dose 7.5 g a.i./hm^2): 5%; Growth inhibition rate, Pre-emergence treatment, Echinochloa crus-galli (L.) Beauv. ([1]; dose 15 g a.i./hm^2): 10%; Growth inhibition rate, Pre-emergence treatment, Echinochloa crus-galli (L.) Beauv. ([1]; dose 37.5 g a.i./hm^2): 20%; Growth inhibition rate, Pre-emergence treatment, Echinochloa crus-galli (L.) Beauv. ([1]; dose 150 g a.i./hm^2): 85%; Growth inhibition rate, Pre-emergence treatment, Echinochloa crus-galli (L.) Beauv. ([1]; dose 600 g a.i./hm^2): 100%; Growth inhibition rate, Post-emergence treatment, Abutilon theophrasti Medic. ([2]; dose 7.5 g a.i./hm^2): 98%; Growth inhibition rate, Post-emergence treatment, Abutilon theophrasti Medic. ([2]; dose 15 g a.i./hm^2): 100%; Growth inhibition rate, Post-emergence treatment, Abutilon theophrasti Medic. ([2]; dose 37.5 g a.i./hm^2): 100%; Growth inhibition rate, Post-emergence treatment, Abutilon theophrasti Medic. ([2]; dose 150 g a.i./hm^2): 100%; Growth inhibition rate, Post-emergence treatment, Abutilon theophrasti Medic. ([2]; dose 600 g a.i./hm^2): 100%; Growth inhibition rate, Pre-emergence treatment, Abutilon theophrasti Medic. ([2]; dose 7.5 g a.i./hm^2): 98%; Growth inhibition rate, Pre-emergence treatment, Abutilon theophrasti Medic. ([2]; dose 15 g a.i./hm^2): 100%; Growth inhibition rate, Pre-emergence treatment, Abutilon theophrasti Medic. ([2]; dose 37.5 g a.i./hm^2): 95%; Growth inhibition rate, Pre-emergence treatment, Abutilon theophrasti Medic. ([2]; dose 150 g a.i./hm^2): 100%; Growth inhibition rate, Pre-emergence treatment, Abutilon theophrasti Medic. ([2]; dose 600 g a.i./hm^2): 100%; Growth inhibition rate, Post-emergence treatment, Setaria glauca (L.) Beauv. ([3]; dose 7.5 g a.i./hm^2): 30%; Growth inhibition rate, Post-emergence treatment, Setaria glauca (L.) Beauv. ([3]; dose 15 g a.i./hm^2): 45%; Growth inhibition rate, Post-emergence treatment, Setaria glauca (L.) Beauv. ([3]; dose 37.5 g a.i./hm^2): 50%; Growth inhibition rate, Post-emergence treatment, Setaria glauca (L.) Beauv. ([3]; dose 150 g a.i./hm^2): 85%; Growth inhibition rate, Post-emergence treatment, Setaria glauca (L.) Beauv. ([3]; dose 600 g a.i./hm^2): 98%; Growth inhibition rate, Pre-emergence treatment, Setaria glauca (L.) Beauv. ([3]; dose 7.5 g a.i./hm^2): 70%; Growth inhibition rate, Pre-emergence treatment, Setaria glauca (L.) Beauv. ([3]; dose 15 g a.i./hm^2): 80%; Growth inhibition rate, Pre-emergence treatment, Setaria glauca (L.) Beauv. ([3]; dose 37.5 g a.i./hm^2): 95%; Growth inhibition rate, Pre-emergence treatment, Setaria glauca (L.) Beauv. ([3]; dose 150 g a.i./hm^2): 90%; Growth inhibition rate, Pre-emergence treatment, Setaria glauca (L.) Beauv. ([3]; dose 600 g a.i./hm^2): 100%; pre-emergence and post-emergence herbicidal activity against broad-leaf weeds and grass weeds [4]: good; Crop safety, wheat (wheat): good safety; Crop safety, maize (maize): good safety; Crop safety, rice (rice): good safety
